In patent publication US7118895B2, “Process for producing aglycon by using diglycosidase and flavor-improved food containing the aglycon and converting agent to be used in the process” (Amano Enzyme Inc., priority 2000, dated 2006):

Legend:
[1] = system: Crude diglycosidase; experiment: Examination of substrate concentration in the conversion into isoflavone aglycons by diglycosidase using soybean materials; type: biochemical, Penicillium multicolor IAM7153;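 for Decomposition efficiency: ratio of each glycoside/aglycon within its isoflavone family: percent of the isoflavone family total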
Method in brief: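 Reaction at 55° C, shaken, pH 4.0 (20 mM acetate), using crude diglycosidase from a 1.88 AU/mL enzyme solution on soy flour, soymilk, defatted soybean or soy protein concentrate at 2, 5, 10, 20 or 30% (w/v). Isoflavone aglycons quantified by HPLC of ethanol extracts at 0, 1, 3, 6 h.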

[2] = system: β-Glucosidase derived from A. niger; experiment: Reactivity toward various isoflavone glycosides (HPLC); type: biochemical, Aspergillus niger; design: glucoside / aglycon: unit not given here; settings: 55 °C, pH 4.0
Method in brief: (§1)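 Aglycone liberation was measured by reversed-phase HPLC (260 nm, calibration-curve quantitation) after ethanol extraction at 0, 1, 3 and 6 h. Reactions ran at 55° C, pH 4.0 (20 mM acetate), with each glycoside (from 2 mM methanol stock) and 0.75 AU/mL enzyme solution.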

[3] = system: Diglycosidase derived from P. multicolor; experiment: as above; type: biochemical, Penicillium multicolor; design: glucoside / aglycon: unit not given here; settings: 55 °C, pH 4.0
Method in brief: as §1

Structure (SMILES): O=C(O)CC(=O)OC[C@H]1O[C@@H](Oc2ccc3c(=O)c(-c4ccc(O)cc4)coc3c2)[C@H](O)[C@@H](O)[C@@H]1O [malonyldaidzin, 6″-O-malonyldaidzin]
- Decomposition efficiency: ratio of each glycoside/aglycon within its isoflavone family ([1]; roasted soy flour, substrate concentration 2%, heat treatment of enzyme no, reaction time 0 h): not detected
- Decomposition efficiency: ratio of each glycoside/aglycon within its isoflavone family ([1]; roasted soy flour, substrate concentration 2%, heat treatment of enzyme no, reaction time 1 h): not detected
- Decomposition efficiency: ratio of each glycoside/aglycon within its isoflavone family ([1]; roasted soy flour, substrate concentration 2%, heat treatment of enzyme no, reaction time 3 h): not detected
- Decomposition efficiency: ratio of each glycoside/aglycon within its isoflavone family ([1]; roasted soy flour, substrate concentration 2%, heat treatment of enzyme no, reaction time 6 h): not detected
- Decomposition efficiency: ratio of each glycoside/aglycon within its isoflavone family ([1]; roasted soy flour, substrate concentration 2%, heat treatment of enzyme yes, reaction time 6 h): not detected
- Decomposition efficiency: ratio of each glycoside/aglycon within its isoflavone family ([1]; roasted soy flour, substrate concentration 5%, heat treatment of enzyme no, reaction time 0 h): not detected
- Decomposition efficiency: ratio of each glycoside/aglycon within its isoflavone family ([1]; roasted soy flour, substrate concentration 5%, heat treatment of enzyme no, reaction time 1 h): not detected
- Decomposition efficiency: ratio of each glycoside/aglycon within its isoflavone family ([1]; roasted soy flour, substrate concentration 5%, heat treatment of enzyme no, reaction time 3 h): not detected
- Decomposition efficiency: ratio of each glycoside/aglycon within its isoflavone family ([1]; roasted soy flour, substrate concentration 5%, heat treatment of enzyme no, reaction time 6 h): not detected
- Decomposition efficiency: ratio of each glycoside/aglycon within its isoflavone family ([1]; roasted soy flour, substrate concentration 5%, heat treatment of enzyme yes, reaction time 6 h): not detected
- Decomposition efficiency: ratio of each glycoside/aglycon within its isoflavone family ([1]; roasted soy flour, substrate concentration 10%, heat treatment of enzyme no, reaction time 0 h): not detected
- Decomposition efficiency: ratio of each glycoside/aglycon within its isoflavone family ([1]; roasted soy flour, substrate concentration 10%, heat treatment of enzyme no, reaction time 1 h): not detected
- Decomposition efficiency: ratio of each glycoside/aglycon within its isoflavone family ([1]; roasted soy flour, substrate concentration 10%, heat treatment of enzyme no, reaction time 3 h): not detected
- Decomposition efficiency: ratio of each glycoside/aglycon within its isoflavone family ([1]; roasted soy flour, substrate concentration 10%, heat treatment of enzyme no, reaction time 6 h): not detected
- Decomposition efficiency: ratio of each glycoside/aglycon within its isoflavone family ([1]; roasted soy flour, substrate concentration 10%, heat treatment of enzyme yes, reaction time 6 h): not detected
- Decomposition efficiency: ratio of each glycoside/aglycon within its isoflavone family ([1]; roasted soy flour, substrate concentration 20%, heat treatment of enzyme no, reaction time 0 h): not detected
- Decomposition efficiency: ratio of each glycoside/aglycon within its isoflavone family ([1]; roasted soy flour, substrate concentration 20%, heat treatment of enzyme no, reaction time 1 h): not detected
- Decomposition efficiency: ratio of each glycoside/aglycon within its isoflavone family ([1]; roasted soy flour, substrate concentration 20%, heat treatment of enzyme no, reaction time 3 h): not detected
- Decomposition efficiency: ratio of each glycoside/aglycon within its isoflavone family ([1]; roasted soy flour, substrate concentration 20%, heat treatment of enzyme no, reaction time 6 h): not detected
- Decomposition efficiency: ratio of each glycoside/aglycon within its isoflavone family ([1]; roasted soy flour, substrate concentration 20%, heat treatment of enzyme yes, reaction time 6 h): not detected
- Decomposition efficiency: ratio of each glycoside/aglycon within its isoflavone family ([1]; roasted soy flour, substrate concentration 30%, heat treatment of enzyme no, reaction time 0 h): not detected
- Decomposition efficiency: ratio of each glycoside/aglycon within its isoflavone family ([1]; roasted soy flour, substrate concentration 30%, heat treatment of enzyme no, reaction time 1 h): not detected
- Decomposition efficiency: ratio of each glycoside/aglycon within its isoflavone family ([1]; roasted soy flour, substrate concentration 30%, heat treatment of enzyme no, reaction time 3 h): not detected
- Decomposition efficiency: ratio of each glycoside/aglycon within its isoflavone family ([1]; roasted soy flour, substrate concentration 30%, heat treatment of enzyme no, reaction time 6 h): not detected
- Decomposition efficiency: ratio of each glycoside/aglycon within its isoflavone family ([1]; roasted soy flour, substrate concentration 30%, heat treatment of enzyme yes, reaction time 6 h): not detected
- Decomposition efficiency: ratio of each glycoside/aglycon within its isoflavone family ([1]; soymilk, substrate concentration 2%, heat treatment of enzyme no, reaction time 0 h): 32.2%
- Decomposition efficiency: ratio of each glycoside/aglycon within its isoflavone family ([1]; soymilk, substrate concentration 2%, heat treatment of enzyme no, reaction time 1 h): 27.5%
- Decomposition efficiency: ratio of each glycoside/aglycon within its isoflavone family ([1]; soymilk, substrate concentration 2%, heat treatment of enzyme no, reaction time 3 h): 9.9%
- Decomposition efficiency: ratio of each glycoside/aglycon within its isoflavone family ([1]; soymilk, substrate concentration 2%, heat treatment of enzyme no, reaction time 6 h): 2.9%
- Decomposition efficiency: ratio of each glycoside/aglycon within its isoflavone family ([1]; soymilk, substrate concentration 2%, heat treatment of enzyme yes, reaction time 6 h): 47.0%
- Decomposition efficiency: ratio of each glycoside/aglycon within its isoflavone family ([1]; soymilk, substrate concentration 5%, heat treatment of enzyme no, reaction time 0 h): 53.6%
- Decomposition efficiency: ratio of each glycoside/aglycon within its isoflavone family ([1]; soymilk, substrate concentration 5%, heat treatment of enzyme no, reaction time 1 h): 34.2%
- Decomposition efficiency: ratio of each glycoside/aglycon within its isoflavone family ([1]; soymilk, substrate concentration 5%, heat treatment of enzyme no, reaction time 3 h): 15.9%
- Decomposition efficiency: ratio of each glycoside/aglycon within its isoflavone family ([1]; soymilk, substrate concentration 5%, heat treatment of enzyme no, reaction time 6 h): 6.1%
- Decomposition efficiency: ratio of each glycoside/aglycon within its isoflavone family ([1]; soymilk, substrate concentration 5%, heat treatment of enzyme yes, reaction time 6 h): 47.6%
- Decomposition efficiency: ratio of each glycoside/aglycon within its isoflavone family ([1]; soymilk, substrate concentration 10%, heat treatment of enzyme no, reaction time 0 h): 53.4%
- Decomposition efficiency: ratio of each glycoside/aglycon within its isoflavone family ([1]; soymilk, substrate concentration 10%, heat treatment of enzyme no, reaction time 1 h): 37.4%
- Decomposition efficiency: ratio of each glycoside/aglycon within its isoflavone family ([1]; soymilk, substrate concentration 10%, heat treatment of enzyme no, reaction time 3 h): 20.5%
- Decomposition efficiency: ratio of each glycoside/aglycon within its isoflavone family ([1]; soymilk, substrate concentration 10%, heat treatment of enzyme no, reaction time 6 h): 10.7%
- Decomposition efficiency: ratio of each glycoside/aglycon within its isoflavone family ([1]; soymilk, substrate concentration 10%, heat treatment of enzyme yes, reaction time 6 h): 47.8%
- Decomposition efficiency: ratio of each glycoside/aglycon within its isoflavone family ([1]; soymilk, substrate concentration 20%, heat treatment of enzyme no, reaction time 0 h): 53.6%
- Decomposition efficiency: ratio of each glycoside/aglycon within its isoflavone family ([1]; soymilk, substrate concentration 20%, heat treatment of enzyme no, reaction time 1 h): 41.2%
- Decomposition efficiency: ratio of each glycoside/aglycon within its isoflavone family ([1]; soymilk, substrate concentration 20%, heat treatment of enzyme no, reaction time 3 h): 21.5%
- Decomposition efficiency: ratio of each glycoside/aglycon within its isoflavone family ([1]; soymilk, substrate concentration 20%, heat treatment of enzyme no, reaction time 6 h): 16.4%
- Decomposition efficiency: ratio of each glycoside/aglycon within its isoflavone family ([1]; soymilk, substrate concentration 20%, heat treatment of enzyme yes, reaction time 6 h): 48.1%
- Decomposition efficiency: ratio of each glycoside/aglycon within its isoflavone family ([1]; soymilk, substrate concentration 30%, heat treatment of enzyme no, reaction time 0 h): 53.5%
- Decomposition efficiency: ratio of each glycoside/aglycon within its isoflavone family ([1]; soymilk, substrate concentration 30%, heat treatment of enzyme no, reaction time 1 h): 43.8%
- Decomposition efficiency: ratio of each glycoside/aglycon within its isoflavone family ([1]; soymilk, substrate concentration 30%, heat treatment of enzyme no, reaction time 3 h): 29.7%
- Decomposition efficiency: ratio of each glycoside/aglycon within its isoflavone family ([1]; soymilk, substrate concentration 30%, heat treatment of enzyme no, reaction time 6 h): 21.9%
- Decomposition efficiency: ratio of each glycoside/aglycon within its isoflavone family ([1]; soymilk, substrate concentration 30%, heat treatment of enzyme yes, reaction time 6 h): 46.9%
- Decomposition efficiency of daidzin family in defatted soybean ([1]; substrate concentration 2%, heat treatment of enzyme no, reaction time 0 h): 42.2
- Decomposition efficiency of daidzin family in defatted soybean ([1]; substrate concentration 2%, heat treatment of enzyme no, reaction time 1 h): 35.2
- Decomposition efficiency of daidzin family in defatted soybean ([1]; substrate concentration 2%, heat treatment of enzyme no, reaction time 3 h): 21.2
- Decomposition efficiency of daidzin family in defatted soybean ([1]; substrate concentration 2%, heat treatment of enzyme no, reaction time 6 h): 16.5
- Decomposition efficiency of daidzin family in defatted soybean ([1]; substrate concentration 2%, heat treatment of enzyme yes, reaction time 6 h): 38.1
- Decomposition efficiency of daidzin family in defatted soybean ([1]; substrate concentration 5%, heat treatment of enzyme no, reaction time 0 h): 41.1
- Decomposition efficiency of daidzin family in defatted soybean ([1]; substrate concentration 5%, heat treatment of enzyme no, reaction time 1 h): 37.7
- Decomposition efficiency of daidzin family in defatted soybean ([1]; substrate concentration 5%, heat treatment of enzyme no, reaction time 3 h): 30.6
- Decomposition efficiency of daidzin family in defatted soybean ([1]; substrate concentration 5%, heat treatment of enzyme no, reaction time 6 h): 21.0
- Decomposition efficiency of daidzin family in defatted soybean ([1]; substrate concentration 5%, heat treatment of enzyme yes, reaction time 6 h): 38.1
- Decomposition efficiency of daidzin family in defatted soybean ([1]; substrate concentration 10%, heat treatment of enzyme no, reaction time 0 h): 39.7
- Decomposition efficiency of daidzin family in defatted soybean ([1]; substrate concentration 10%, heat treatment of enzyme no, reaction time 1 h): 39.5
- Decomposition efficiency of daidzin family in defatted soybean ([1]; substrate concentration 10%, heat treatment of enzyme no, reaction time 3 h): 34.2
- Decomposition efficiency of daidzin family in defatted soybean ([1]; substrate concentration 10%, heat treatment of enzyme no, reaction time 6 h): 29.0
- Decomposition efficiency of daidzin family in defatted soybean ([1]; substrate concentration 10%, heat treatment of enzyme yes, reaction time 6 h): 37.0
- aglycon ([2]; Reaction time 0 h): 0
- glucoside ([2]; Reaction time 0 h): 100
- aglycon ([2]; Reaction time 1 h): 4.5
- glucoside ([2]; Reaction time 1 h): 95.5
- aglycon ([2]; Reaction time 3 h): 9.3
- glucoside ([2]; Reaction time 3 h): 90.7
- aglycon ([2]; Reaction time 6 h): 16
- glucoside ([2]; Reaction time 6 h): 84
- aglycon ([3]; Reaction time 0 h): 0
- glucoside ([3]; Reaction time 0 h): 100
- aglycon ([3]; Reaction time 1 h): 50.8
- glucoside ([3]; Reaction time 1 h): 49.2
- aglycon ([3]; Reaction time 3 h): 60.1
- glucoside ([3]; Reaction time 3 h): 39.9
- aglycon ([3]; Reaction time 6 h): 61.5
- glucoside ([3]; Reaction time 6 h): 38.5
